# Laboratory results taken from ChEMBL document CHEMBL1201862, “PubChem BioAssay data set” (2004).
# Activity calls are given as the source filed them.
# Experiments:
# [1] = target: T1, Oxysterols receptor LXR-beta (Homo sapiens, UniProt P55055); type: functional, cell-based;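 note: agonist activity at LXR measured by a cell-based luminescence readout across a dose range, run as a counterscreen for daf-12 agonists; HEK293 cells with Gal4-LXR fusion and GAL4-driven luciferase reporter; potency for activation of Gal4-LXR reporter so compounds are agonists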
# T1 sequence (P55055 whole entry): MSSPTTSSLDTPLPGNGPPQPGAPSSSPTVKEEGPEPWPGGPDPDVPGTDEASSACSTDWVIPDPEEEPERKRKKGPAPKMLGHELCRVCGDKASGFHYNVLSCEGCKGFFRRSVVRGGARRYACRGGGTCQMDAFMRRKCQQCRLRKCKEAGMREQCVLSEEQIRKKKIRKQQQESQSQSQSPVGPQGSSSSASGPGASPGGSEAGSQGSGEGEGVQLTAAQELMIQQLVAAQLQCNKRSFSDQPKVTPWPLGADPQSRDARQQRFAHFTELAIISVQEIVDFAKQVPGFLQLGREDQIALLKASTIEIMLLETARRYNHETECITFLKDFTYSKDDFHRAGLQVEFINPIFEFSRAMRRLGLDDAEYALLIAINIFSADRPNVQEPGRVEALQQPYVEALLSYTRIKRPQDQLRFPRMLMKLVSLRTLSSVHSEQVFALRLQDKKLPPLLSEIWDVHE
# [2] = target: T2, Fructose-bisphosphate aldolase (Mycobacterium tuberculosis, UniProt P9WQA3); test: Fluorescence-based biochemical high throughput dose response assay for inhibitors of the fructose-bisphosphate aldolase (FBA) of M. tuberculosis.; type: functional
# T2 sequence (P9WQA3 whole entry): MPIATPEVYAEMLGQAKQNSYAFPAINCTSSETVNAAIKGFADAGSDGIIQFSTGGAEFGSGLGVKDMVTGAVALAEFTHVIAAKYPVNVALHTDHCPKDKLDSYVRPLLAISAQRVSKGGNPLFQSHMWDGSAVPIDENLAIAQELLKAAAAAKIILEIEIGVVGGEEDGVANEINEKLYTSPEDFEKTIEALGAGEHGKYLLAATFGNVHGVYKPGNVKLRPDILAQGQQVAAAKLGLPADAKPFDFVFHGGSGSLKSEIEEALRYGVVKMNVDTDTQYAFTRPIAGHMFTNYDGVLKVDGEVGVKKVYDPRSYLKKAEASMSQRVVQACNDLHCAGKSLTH
# Beta-lactamase [3] = target: Beta-lactamase (Salmonella choleraesuis (strain SC-B67), UniProt Q5J463); test: Epi-absorbance-based counterscreen for selective VIM-2 inhibitors: dose response biochemical high throughput screening assay to identify inhibitors of TEM-1 serine-beta-lactamase.
# Beta-lactamase [4] = target: T3, Beta-lactamase (Pseudomonas aeruginosa, UniProt Q79MP6); test: IMP-1 metallo-beta-lactamase inhibitors, dose response, selectivity assay for VIM-2 inhibitor project, biochemical, epi-absorbance (AID 1920)
# Beta-lactamase [5] = target: T3, Beta-lactamase; test: […] counterscreen for selective VIM-2 inhibitors: dose response biochemical high throughput screening assay to identify inhibitors of IMP-1 metallo-beta-lactamase.
# Beta-galactosidase = Beta-galactosidase (Escherichia coli, UniProt Q8VNN2); test: beta-galactosidase enzyme inhibitors and activators, dose response, artefact control for CCR6 antagonist project, biochemical, E. coli enzyme, set 3 (AID 504712); type: functional
# cells [6] = type: functional, cell-based
# [7] = target: T4, Nuclear receptor subfamily 0 group B member 1 (Homo sapiens, UniProt P51843); type: functional, cell-based;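 note: HEK293T cells transfected with SF-1 and DAX-1 plus StAR promoter luciferase reporter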
# T4 sequence (P51843 whole entry): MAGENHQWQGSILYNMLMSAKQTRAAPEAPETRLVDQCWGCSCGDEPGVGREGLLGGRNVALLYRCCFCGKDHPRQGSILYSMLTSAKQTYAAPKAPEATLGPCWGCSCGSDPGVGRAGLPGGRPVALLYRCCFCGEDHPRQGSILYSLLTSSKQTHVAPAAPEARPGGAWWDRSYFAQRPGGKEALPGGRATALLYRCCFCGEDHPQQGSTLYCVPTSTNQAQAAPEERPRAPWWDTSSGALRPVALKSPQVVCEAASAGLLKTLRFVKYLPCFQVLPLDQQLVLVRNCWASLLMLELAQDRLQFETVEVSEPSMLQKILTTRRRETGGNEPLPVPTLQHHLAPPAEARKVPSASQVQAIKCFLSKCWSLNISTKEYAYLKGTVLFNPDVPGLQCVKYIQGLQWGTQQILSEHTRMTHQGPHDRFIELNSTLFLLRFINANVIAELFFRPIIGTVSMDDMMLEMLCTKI
# [8] = Luminescence Cell-Based Dose Confirmation HTS to Identify Activators of 5'UTR Stem-Loop Driven Alpha-Synuclein mRNA Translation in H4 Neuroglioblastoma Cells. [Related pubchem assays: 1829 (Project Summary), 1814 (Primary HTS)]; type: functional
# [9] = Luminescence Cell-Based Dose Response HTS to Identify Activators of Luciferase Translation or Activity in H4 […] Cells. [Related pubchem assays: 1829 (Project Summary), 1814 (Primary HTS)]; type: functional
# cells [10] = type: functional, cell-based; remark: listed apart in the source
# H4 = test: Luminescence Cell-Based Dose Response HTS to Identify Activators of 5'UTR Stem-Loop Driven Prion Protein mRNA Translation in H4 Neuroglioblastoma Cells. [Related pubchem assays: 1829 (Project Summary), 1814 (Primary HTS)]; type: functional; conditions: Homo sapiens
# cells [11] = type: functional, cell-based; remark: listed apart in the source
# [12] = inhibitors of clade B AD8 Env fusion, dose response, cell-based, cherry-pick (AID 652062); type: functional;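 note: luciferase signal from cell-cell fusion driven by HIV-1 clade B AD8 Env; potency is for inhibitors of fusion seen as a drop in luminescence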
# [13] = HEK293T cytotoxicity, dose response, cytotoxicity control for miR-122 modulator project, cell-based, inhibitor set, cherry-pick, set 2 (AID 720697); type: functional
# [14] = target: T5, Probable nicotinate-nucleotide adenylyltransferase (Staphylococcus aureus (strain N315), UniProt P65502); type: functional, Staphylococcus aureus subsp. aureus N315;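 for IC50 Mean: confirmatory dose-response retesting of NadD inhibitor hits first found in an ultra-high-throughput screen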
# [15] = target: T5, Probable nicotinate-nucleotide adenylyltransferase; type: functional, Staphylococcus aureus subsp. aureus N315; conditions: read-out: IC50_Mean
# [16] = tested on: Streptococcus sp. 'group A'; test: growth inhibition of control SK(-) GAS strain, dose response, counter-screen for streptokinase expression inhibitor project, luminescence, kanamycin, BacTiterGlo, confirmation (AID 1900); type: functional, organism-based
# Streptokinase A = target: T6, Streptokinase A (Streptococcus pyogenes serotype M1, UniProt P10520); test: S. pyogenes streptokinase expression inhibitors, potency, dose response, plasminogen activation absorbance, OD405 (AID 1914); type: functional, Streptococcus pyogenes M1 GAS;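 note: secreted streptokinase activity via plasminogen activation per viability signal from cell pellet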
# T6 sequence (P10520 whole entry): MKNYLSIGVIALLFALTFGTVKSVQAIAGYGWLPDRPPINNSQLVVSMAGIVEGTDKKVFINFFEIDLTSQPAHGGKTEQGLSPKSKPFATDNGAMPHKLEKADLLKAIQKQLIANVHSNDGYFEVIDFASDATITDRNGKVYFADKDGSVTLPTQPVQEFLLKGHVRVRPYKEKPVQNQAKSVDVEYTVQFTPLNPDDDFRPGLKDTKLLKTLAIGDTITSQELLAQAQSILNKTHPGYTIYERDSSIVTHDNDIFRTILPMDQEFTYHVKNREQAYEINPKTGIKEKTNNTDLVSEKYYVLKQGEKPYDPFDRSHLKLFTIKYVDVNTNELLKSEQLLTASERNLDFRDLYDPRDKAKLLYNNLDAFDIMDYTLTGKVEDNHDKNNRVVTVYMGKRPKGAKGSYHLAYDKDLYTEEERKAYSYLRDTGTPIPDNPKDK
# Streptococcus = test: Group A Streptococcus viability loss, dose response, counter-screen for streptokinase expression inhibitor project, luminescence, BacTiterGlo (AID 1915); type: functional, organism-based;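 note: potency for reduction of bacterial viability or growth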
# [17] = target: T7, Ubiquitin-conjugating enzyme E2 N (Homo sapiens, UniProt P61088); type: functional;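 note: Dose-response confirmation in a TR-FRET assay detecting UBC13-driven polyubiquitin chain formation, inhibition measured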
# T7 sequence (P61088 whole entry): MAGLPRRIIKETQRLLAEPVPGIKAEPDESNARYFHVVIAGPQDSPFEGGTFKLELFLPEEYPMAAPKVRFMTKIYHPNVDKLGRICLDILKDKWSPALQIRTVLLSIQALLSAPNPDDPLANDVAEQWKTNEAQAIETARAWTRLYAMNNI
# [18] = target: T8, Hepatocyte nuclear factor 4-alpha (Homo sapiens, UniProt P41235); type: functional, cell-based;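 note: biochemical luminescence-based dose-response counterscreen measuring inhibition of HNF4 dimerization, run alongside a screen for blockers of ABHD5–perilipin-5 interaction; split luciferase complementation of HNF4 fusion proteins in cell lysate measuring dimerization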
# T8 sequence (P41235 whole entry): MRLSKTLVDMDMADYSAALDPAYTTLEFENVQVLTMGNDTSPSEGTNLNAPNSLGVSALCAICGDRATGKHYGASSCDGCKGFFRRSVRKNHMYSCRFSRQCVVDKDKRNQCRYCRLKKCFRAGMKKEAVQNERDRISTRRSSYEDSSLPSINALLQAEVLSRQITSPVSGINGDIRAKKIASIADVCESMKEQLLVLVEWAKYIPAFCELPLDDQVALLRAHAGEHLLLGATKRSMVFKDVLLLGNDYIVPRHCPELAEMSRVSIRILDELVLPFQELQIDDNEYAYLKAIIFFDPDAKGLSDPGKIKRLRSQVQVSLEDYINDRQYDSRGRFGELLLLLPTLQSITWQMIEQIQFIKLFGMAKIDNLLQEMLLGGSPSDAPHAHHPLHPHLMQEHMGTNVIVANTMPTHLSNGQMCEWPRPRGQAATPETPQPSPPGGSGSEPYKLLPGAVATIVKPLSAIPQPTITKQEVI
# [19] = target: T9, COUP transcription factor 2 (Homo sapiens, UniProt P24468); test: Luminescence-based cell-based high throughput dose response assay to identify inhibitors of COUP-TFII (NR2F2).; type: functional;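 note: HEK293 cells transiently cotransfected with COUP-TFII expression vector and reporter; luciferase reporter luminescence driven by COUP-TFII from the pX2-168 reporter plasmid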
# T9 sequence (P24468 whole entry): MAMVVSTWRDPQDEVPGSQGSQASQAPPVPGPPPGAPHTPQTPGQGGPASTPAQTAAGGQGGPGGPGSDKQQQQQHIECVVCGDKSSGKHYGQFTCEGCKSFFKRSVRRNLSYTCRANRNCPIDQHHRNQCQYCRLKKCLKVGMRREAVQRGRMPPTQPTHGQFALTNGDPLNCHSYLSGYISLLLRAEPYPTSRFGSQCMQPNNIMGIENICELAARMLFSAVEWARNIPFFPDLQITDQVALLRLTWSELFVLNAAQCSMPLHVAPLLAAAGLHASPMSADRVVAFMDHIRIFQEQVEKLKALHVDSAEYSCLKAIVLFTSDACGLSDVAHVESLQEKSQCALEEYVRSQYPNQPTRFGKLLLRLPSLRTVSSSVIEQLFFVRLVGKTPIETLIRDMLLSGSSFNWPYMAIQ
# Chain of Beta-lactamase (Salmonella choleraesuis (strain SC-B67), UniProt Q5J463) (Q5J463 whole entry): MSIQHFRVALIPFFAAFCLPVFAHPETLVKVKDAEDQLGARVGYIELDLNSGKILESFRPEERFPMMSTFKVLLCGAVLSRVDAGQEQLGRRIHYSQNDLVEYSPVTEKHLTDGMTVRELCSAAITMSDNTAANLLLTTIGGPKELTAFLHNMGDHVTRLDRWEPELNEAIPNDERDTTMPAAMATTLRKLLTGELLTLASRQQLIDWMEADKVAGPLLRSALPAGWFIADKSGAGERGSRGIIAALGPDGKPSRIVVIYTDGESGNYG
# T3 sequence (Q79MP6 whole entry): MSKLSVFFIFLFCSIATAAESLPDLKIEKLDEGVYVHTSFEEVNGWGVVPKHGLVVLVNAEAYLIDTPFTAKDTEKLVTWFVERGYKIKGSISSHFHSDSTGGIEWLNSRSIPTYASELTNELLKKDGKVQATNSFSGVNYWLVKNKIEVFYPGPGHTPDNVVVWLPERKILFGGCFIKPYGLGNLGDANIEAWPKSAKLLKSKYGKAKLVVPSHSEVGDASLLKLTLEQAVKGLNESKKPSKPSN
# T5 sequence (P65502 whole entry): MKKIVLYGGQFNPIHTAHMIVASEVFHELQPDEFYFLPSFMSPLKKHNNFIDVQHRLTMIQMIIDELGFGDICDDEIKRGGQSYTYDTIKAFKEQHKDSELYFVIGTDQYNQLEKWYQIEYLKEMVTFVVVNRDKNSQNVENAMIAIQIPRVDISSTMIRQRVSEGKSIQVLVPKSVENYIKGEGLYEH
# Chain of Beta-galactosidase (Q8VNN2 whole entry): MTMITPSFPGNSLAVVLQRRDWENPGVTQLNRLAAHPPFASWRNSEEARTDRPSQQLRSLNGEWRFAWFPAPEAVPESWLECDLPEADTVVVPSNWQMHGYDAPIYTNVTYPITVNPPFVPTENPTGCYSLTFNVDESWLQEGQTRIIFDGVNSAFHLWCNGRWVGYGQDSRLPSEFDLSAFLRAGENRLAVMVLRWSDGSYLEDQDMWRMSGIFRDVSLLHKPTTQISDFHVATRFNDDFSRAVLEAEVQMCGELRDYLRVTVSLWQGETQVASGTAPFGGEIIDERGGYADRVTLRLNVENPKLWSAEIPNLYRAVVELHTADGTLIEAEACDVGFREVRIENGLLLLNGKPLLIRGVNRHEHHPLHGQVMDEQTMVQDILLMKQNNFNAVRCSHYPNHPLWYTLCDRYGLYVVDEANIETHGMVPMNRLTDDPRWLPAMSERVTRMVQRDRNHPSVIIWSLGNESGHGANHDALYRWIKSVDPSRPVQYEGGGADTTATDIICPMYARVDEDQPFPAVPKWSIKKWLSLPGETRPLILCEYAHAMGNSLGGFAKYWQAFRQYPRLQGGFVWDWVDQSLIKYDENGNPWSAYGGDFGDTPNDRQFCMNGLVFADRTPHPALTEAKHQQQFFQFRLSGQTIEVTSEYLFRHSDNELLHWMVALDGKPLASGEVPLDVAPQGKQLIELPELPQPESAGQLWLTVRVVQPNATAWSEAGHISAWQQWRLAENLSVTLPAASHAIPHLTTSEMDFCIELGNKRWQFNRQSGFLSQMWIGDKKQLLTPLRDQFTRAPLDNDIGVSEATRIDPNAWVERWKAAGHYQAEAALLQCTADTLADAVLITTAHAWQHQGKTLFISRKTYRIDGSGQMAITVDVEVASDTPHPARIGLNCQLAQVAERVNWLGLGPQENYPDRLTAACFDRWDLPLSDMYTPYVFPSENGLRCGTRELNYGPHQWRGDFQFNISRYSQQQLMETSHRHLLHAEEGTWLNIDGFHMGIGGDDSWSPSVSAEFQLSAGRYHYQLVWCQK
structure (smiles),measurement,setting,value
O=c1c2ccccc2nnn1CSc1ccccc1F,EC50,[1],> 67.5 µM (inactive)
O=C(NCc1cccc(Cl)c1)C1=CC=CN2CCS(=O)(=O)N=C12,IC50,[2],2.61 µM (active)
Cc1cccc(NC(=O)c2ccc3ccccc3n2)c1C,EC50,[1],> 67.5 µM (inactive)
CC(C)(C)c1ccc(-c2n[nH]c(=S)n2CCCN2CCOCC2)cc1,IC50,Beta-lactamase [3],> 59.6 µM (inactive)
same,IC50,Beta-lactamase [4],> 59.6 µM (inactive)
same,IC50,Beta-lactamase [5],> 59.6 µM (inactive)
Cc1ccnc(NC(=O)/C=C/c2cccs2)c1,EC50,[1],> 67.6 µM (inactive)
COc1ccc2[nH]c(C(=O)O)c(CCN3C(=O)c4ccc(C(=O)O)cc4C3=O)c2c1,IC50,Beta-lactamase [3],> 59.6 µM (inactive)
same,IC50,Beta-lactamase [4],> 59.6 µM (inactive)
same,IC50,Beta-lactamase [5],> 59.6 µM (inactive)
Cc1ccc(NC(S)=NNC(=O)Nc2ccccc2)cc1,IC50,Beta-galactosidase,> 66.6 µM (inactive)
same,IC50,cells [6],> 67.6 µM (inactive)
same,IC50,[7],> 67.6 µM (inactive)
CCOc1ccc(-n2nc3ccc(N)cc3n2)cc1,IC50,[2],0.716 µM (active)
Cc1ccc(C(=O)NNC(=O)c2ccc3c(c2)OCCO3)cc1,IC50,cells [6],> 67.5 µM (inactive)
same,IC50,[7],> 67.5 µM (inactive)
O=C(NCCCn1ccnc1)c1cc(-c2cccs2)on1,EC50,[8],12.4 µM (active)
same,EC50,[9],16.9 µM (active)
same,EC50,cells [10],13.2 µM (active)
same,EC50,H4,12.3 µM (active)
same,EC50,cells [11],> 350 µM (not active)
same,EC50,[1],> 67.5 µM (inactive)
CCCN1CCN(CCCNC(=O)c2ccc3c(c2)NC(=O)c2ccccc2S3)CC1,IC50,cells [6],> 67.5 µM (inactive)
same,IC50,[7],> 67.5 µM (inactive)
COc1ccc(-c2cn3c(C)c(C(=O)Nc4cccc(NC(C)=O)c4)sc3n2)cc1,AC50,[12],17 µM (active)
same,AC50,[13],6.44 µM (active)
CC(C)(C)CC(=O)Nc1nnc(SCC(=O)NCc2cccs2)s1,IC50,Beta-lactamase [3],> 59.6 µM (inactive)
same,IC50,Beta-lactamase [4],> 59.6 µM (inactive)
same,IC50,Beta-lactamase [5],> 59.6 µM (inactive)
Cn1cccc1-c1nc2ccccc2n1C,IC50,[2],3.08 µM (active)
COc1ccc(NS(=O)(=O)c2ccc(NC(=S)NC(=O)/C=C/c3ccc(C)cc3)cc2)nn1,IC50,[14],5.17 µM (active)
same,IC50,[15],39.3 µM (active)
CC(C)Cn1c(=O)c(C(=O)Nc2ccccc2S(N)(=O)=O)c(O)c2ccccc21,EC50,[16],6.34 µM (active)
same,EC50,Streptokinase A,> 150 µM (not active)
same,EC50,Streptococcus,28.6 µM (active)
same,IC50,[17],> 20 µM (inactive)
same,IC50,[14],8.62 µM (active)
same,IC50,[15],61.2 µM (active)
COc1ccc(NC(=O)C(c2ccnc3ccccc23)n2c(=O)c(-c3ccco3)nc3ccccc32)cc1 (centres undefined),IC50,[18],10.9 µM (inactive)
O=C(NC1CCCCC1)C(c1ccc(C(F)(F)F)cc1)n1c(=O)c(-c2ccco2)nc2ccccc21 (centres undefined),IC50,[18],2.41 µM (active)
CCCCCNC(=O)C(c1ccc(C#N)cc1)n1c(=O)c(-c2ccco2)nc2ccccc21 (centres undefined),IC50,[18],3.24 µM (active)
Cc1c(C(=O)NCc2ccc(C(C)C)cc2)sc(=O)n1Cc1ccc(S(=O)(=O)N(C)C)cc1,IC50,[19],6.46 µM (active)
COc1ccc(C(C(=O)NCc2ccccc2)n2c(=O)c(-c3ccco3)nc3ccccc32)cc1 (centres undefined),IC50,[18],2.46 µM (active)
Cc1ccc(-c2nc3ccc(Br)cn3c2Cc2ccccc2)cc1,IC50,cells [6],> 67.6 µM (inactive)
same,IC50,[7],> 67.6 µM (inactive)
C#CCN(C[C@H]1[C@H](OC(=O)Nc2cccs2)[C@H](OC(=O)Nc2cccs2)C[C@H]2C(=O)N(c3ccccc3)C(=O)[C@@H]12)S(=O)(=O)c1ccc(C)cc1,IC50,[14],19.9 µM (active)
same,IC50,[15],34.5 µM (active)
CC(C)NC(=O)N1C[C@@H]2[C@H](c3ccccc31)[C@@H](CO)N2C(=O)c1cccnc1,AC50,[13],10.1 µM (active)
COc1ccc(/C=C2\Oc3ccccc3C2=O)cc1 [4'-METHOXY-AURONE],IC50,[2],0.912 µM (active)
